Measured values taken from article PMC7721091 (Cancer Biology & Medicine, 2020).
Values joined by “and” are separate entries in the source; they are usually repeats but may differ in a detail not shown here. Equal entries are not always repeated.

Assays:
[1] = Plasma PK of cyclodextrin-HM after i.v. injection; format: in vivo, C57BL/6 mice; settings: C57BL/6, mouse, iv, 20 mg/kg
Description: Plasma samples were obtained from mice at 0, 0.083, 0.25, 0.5, 1, 2, 4, 8, and 24 h time points. Non-compartmental analysis of plasma data after intravenous bolus input was used to determine standard PK parameters of analytes. Administration i.v. has the advantage of allowing for rapid exposure as well as precise control of dose and administration of the tested therapeutic compounds[12], and oral administration may be less efficient with low drug bioavailability, owing to drug adsorption and metabolization in the liver. […] Mice were then anesthetized through intraperitoneal injection of pentobarbital (50 mg/kg) before collection of blood for further analysis.

[2] = Plasma PK of cyclodextrin-HM co-treated with PTX; format: in vivo, C57BL/6 mice; settings: at 72 h, co-treatment with PTX
Description: Plasma samples were collected at 72 h for the analysis of PK parameters in PTX-HM treatment (Figure 4D).

P-gp = P-gp (Homo sapiens, UniProt P08183); settings: MDCK monolayers transfected with P-gp; among cyclosporin A, elacridar, tariquidar; cited from earlier work
ABCB1 = settings: human 293FRT embryonic kidney cells stably expressing ABCB1; cited from earlier work
in vivo = settings: C57BL/6, mouse, brain and plasma, iv
Description: The brain samples were homogenized through ultrasonication in saline before the extraction procedure. The collected supernatant was dried under nitrogen gas, reconstituted in acetonitrile, and divided into aliquots that were loaded onto the LC-MS/MS system. […] The mobile phase for measurement of all compounds was phase A (0.1% formic acid in water) and phase B (0.1% formic acid in acetonitrile): 0–3 min/2%–10% B; 3–8 min/10%–60% B; 8–13 min/60%–90% B; 13–14 min/90%–2% B; and 14–15 min/2% B. The column and auto-sampler temperatures were maintained at 40 °C and 4 °C, respectively. Data were analyzed in Agilent MassHunter workstation software vB.01.03 (Agilent Technologies, Inc.). […] The amounts of the 2 drugs in the plasma and brain samples collected from mice were quantified by using standard and linear least-squares regression curves through calculation of the area under curve (AUC).
PK analysis was performed with PKSolver (Microsoft Corporation)[15]. […] PK analysis was performed through non-compartmental analysis according to Bailer’s method[16].
The percentage penetration of a drug into the brain was expressed as brain AUC0-72hr /plasma AUC0-72hr.

plasma albumin = plasma albumin (Homo sapiens, UniProt P02768); assay: Bio-layer interferometry analysis; format: binding; settings: BLI, biotinylated albumin
Description: Albumin was biotinylated with EZ-Link NHS-LC-LC-Biotin (Thermo Fisher Scientific, Waltham, MA, USA) for 30 min at room temperature and then added to a 96-well plate (Greiner Bio-One, PN:655209). Biotinylation was performed by loading the reaction complex onto a super streptavidin capacity probe (ForteìBIO, Menlo Park, CA, United States), and results were analyzed with a FortéBIO Octet Red instrument upon binding dPTX or HM. ForteìBIO data analysis software was used to calculate the association and dissociation kinetic constants.

[3] = system: U-87 MG-Luc2 glioma cells; assay: Orthotopic brain tumor model; format: in vivo, BALB/c nude mice; settings: for MST (median survival time): vehicle MST 33; for ILS (increase in lifespan): no HM
Description: An orthotopic brain tumor model was established by Wuxi Apptec. Briefly, female BALB/c nude mice 6–8 weeks of age and weighing 18–22 g (Shanghai Sippr-BK Laboratory Animal Co. Ltd., Shanghai, China) were anesthetized through intraperitoneal injection of pentobarbital sodium (80 mg/kg) and subcutaneously administered 0.1 mg/kg buprenorphine before and after surgery for analgesia. The anesthetized mice were intracranially (i.c.) inoculated with U-87 MG-Luc2 cells (2×10^5 cells in 2 μL PBS) in the right frontal lobe. […] The physiological condition of the animals was assessed daily. The animals were pre-anesthetized with a mixture gas of oxygen and isoflurane (1%–3%) to achieve a complete anesthetic state before bioluminescence measurements. Tumor growth was monitored with an in vivo imaging system (Lumina III; PerkinElmer, Inc.), and the survival of all animals was recorded for the calculation of the median survival time (MST) for each group. The increase in lifespan (ILS) was determined as the ratio of the MST of the treatment group to that of the control group, expressed as the percentage increase over the lifespan of the control animals.
Statistical analyses were performed in Microsoft Excel (Microsoft Corporation) and Prism (GraphPad Software). The statistical significance for all experiments was determined with one way ANOVA and Dunnett test. Kaplan-Meier statistical analysis was used for the calculation of the survival rates of different groups of mice, each containing 8 animals, and P-values were calculated with the log rank test. […]

Sequence of plasma albumin (P02768 25-609): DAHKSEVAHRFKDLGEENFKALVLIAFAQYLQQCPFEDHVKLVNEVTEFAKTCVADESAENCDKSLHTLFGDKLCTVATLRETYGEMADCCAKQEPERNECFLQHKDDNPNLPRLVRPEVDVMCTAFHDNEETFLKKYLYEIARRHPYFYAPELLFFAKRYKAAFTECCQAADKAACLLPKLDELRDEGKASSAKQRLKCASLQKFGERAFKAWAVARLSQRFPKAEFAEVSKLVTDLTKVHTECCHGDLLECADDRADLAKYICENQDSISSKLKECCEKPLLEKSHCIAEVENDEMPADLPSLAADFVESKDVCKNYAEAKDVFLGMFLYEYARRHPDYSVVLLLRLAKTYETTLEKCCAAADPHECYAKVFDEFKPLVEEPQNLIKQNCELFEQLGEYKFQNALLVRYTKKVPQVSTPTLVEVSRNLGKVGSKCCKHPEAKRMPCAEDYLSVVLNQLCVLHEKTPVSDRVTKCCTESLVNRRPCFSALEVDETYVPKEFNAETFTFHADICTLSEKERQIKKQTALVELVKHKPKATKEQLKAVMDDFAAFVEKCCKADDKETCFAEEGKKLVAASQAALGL
Sequence of P-gp (P08183 whole entry): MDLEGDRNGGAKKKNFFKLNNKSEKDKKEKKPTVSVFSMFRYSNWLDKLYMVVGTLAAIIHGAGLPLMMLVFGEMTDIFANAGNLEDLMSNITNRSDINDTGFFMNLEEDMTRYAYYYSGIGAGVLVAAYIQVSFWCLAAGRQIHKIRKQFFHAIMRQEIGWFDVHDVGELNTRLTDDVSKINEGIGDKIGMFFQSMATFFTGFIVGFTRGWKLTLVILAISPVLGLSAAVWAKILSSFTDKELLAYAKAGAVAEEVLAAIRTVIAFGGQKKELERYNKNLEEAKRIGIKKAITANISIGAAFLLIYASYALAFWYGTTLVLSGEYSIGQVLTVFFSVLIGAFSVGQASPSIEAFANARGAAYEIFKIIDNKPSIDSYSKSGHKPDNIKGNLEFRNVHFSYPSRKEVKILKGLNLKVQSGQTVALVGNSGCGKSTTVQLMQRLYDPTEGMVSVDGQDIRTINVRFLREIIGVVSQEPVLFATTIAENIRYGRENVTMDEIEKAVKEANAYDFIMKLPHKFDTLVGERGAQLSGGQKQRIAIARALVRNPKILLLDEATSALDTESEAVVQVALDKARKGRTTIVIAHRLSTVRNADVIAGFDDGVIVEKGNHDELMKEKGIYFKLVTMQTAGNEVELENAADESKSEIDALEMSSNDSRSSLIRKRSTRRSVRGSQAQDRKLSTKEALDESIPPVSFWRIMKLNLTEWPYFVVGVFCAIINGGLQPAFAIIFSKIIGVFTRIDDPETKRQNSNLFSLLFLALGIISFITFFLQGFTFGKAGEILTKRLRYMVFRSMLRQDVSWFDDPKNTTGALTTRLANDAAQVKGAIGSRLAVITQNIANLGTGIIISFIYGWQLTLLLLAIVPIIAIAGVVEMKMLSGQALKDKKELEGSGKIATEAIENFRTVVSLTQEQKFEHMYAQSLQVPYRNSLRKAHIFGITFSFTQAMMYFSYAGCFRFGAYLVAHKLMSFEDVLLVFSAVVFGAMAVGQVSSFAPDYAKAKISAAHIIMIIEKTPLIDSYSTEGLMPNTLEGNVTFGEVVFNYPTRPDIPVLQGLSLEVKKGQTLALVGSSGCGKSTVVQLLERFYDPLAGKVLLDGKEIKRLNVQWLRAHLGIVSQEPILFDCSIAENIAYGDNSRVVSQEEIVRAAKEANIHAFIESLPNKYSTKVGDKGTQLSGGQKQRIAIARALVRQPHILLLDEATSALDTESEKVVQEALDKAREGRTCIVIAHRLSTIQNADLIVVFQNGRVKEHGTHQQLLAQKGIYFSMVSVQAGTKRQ

| SMILES | AUC(0-t) ([1]; read-out: area under the curve (AUC0-t)) [ng·h/mL] | half-life ([1]; read-out: half-life (t1/2)) [h] | AUC 0-t/0-inf_obs ratio [2] [%] | potency in inhibiting the transepithelial transport of PTX (P-gp) | potency in inhibiting P-gp-mediated transport of Rho123, relative to XR9576 (Tariquidar) (ABCB1) | Kp at 0.5 h (in vivo) | Kp (in vivo; 10 mg/kg) | Kd (plasma albumin) | MST (median survival time) ([3]; PTX 5 mg/kg i.v. q4d×5, no HM) | ILS (increase in lifespan) ([3]; PTX 5 mg/kg) [%] | MST (median survival time) ([3]; PTX 10 mg/kg i.v. q4d×5, no HM) | ILS (increase in lifespan) ([3]; PTX 10 mg/kg) [%] |
| --- | --- | --- | --- | --- | --- | --- | --- | --- | --- | --- | --- | --- |
| COc1cc2c(cc1OC)CN(CCc1ccc(-n3nnc(-c4cc(OC)c(OC)cc4NC(=O)c4cc(=O)c5ccccc5o4)n3)cc1)CC2 [HM, HM30181A] | 4750 to 9760 | 18.7 to 40.6 | 96 | highest potency | ~ 24 times |  |  |  |  |  |  |  |
| CC(=O)O[C@H]1C(=O)[C@@]2(C)[C@H]([C@H](OC(=O)c3ccccc3)[C@]3(O)C[C@H](OC(=O)[C@H](O)[C@@H](NC(=O)c4ccccc4)c4ccccc4)C(C)=C1C3(C)C)[C@]1(OC(C)=O)CO[C@@H]1C[C@@H]2O [PTX, Paclitaxel] |  |  |  |  |  | 0.46 | 0.29 | 43.3 µM and 43 µM | 33 day and 33 (30~38) day | 0 | 35 day and 35 (30~38) day | 6 |
